Reference: ChEMBL document CHEMBL3603837, “Indole Glucocorticoid Receptor Antagonists Active in a Model of Dyslipidemia Act via a Unique Association with an Agonist Binding Site” (J Med Chem, 2015)
The source made the active and inactive calls. No cut-off for these calls is given here.

Columns and labels:
[1] = target: T1, Estrogen receptor (Homo sapiens) (UniProt P03372); test: Binding affinity to human estrogen receptor expressed in HEK293 cells by scintillation counting based radioligand competition binding assay; format: cell-based
T1 sequence (whole entry): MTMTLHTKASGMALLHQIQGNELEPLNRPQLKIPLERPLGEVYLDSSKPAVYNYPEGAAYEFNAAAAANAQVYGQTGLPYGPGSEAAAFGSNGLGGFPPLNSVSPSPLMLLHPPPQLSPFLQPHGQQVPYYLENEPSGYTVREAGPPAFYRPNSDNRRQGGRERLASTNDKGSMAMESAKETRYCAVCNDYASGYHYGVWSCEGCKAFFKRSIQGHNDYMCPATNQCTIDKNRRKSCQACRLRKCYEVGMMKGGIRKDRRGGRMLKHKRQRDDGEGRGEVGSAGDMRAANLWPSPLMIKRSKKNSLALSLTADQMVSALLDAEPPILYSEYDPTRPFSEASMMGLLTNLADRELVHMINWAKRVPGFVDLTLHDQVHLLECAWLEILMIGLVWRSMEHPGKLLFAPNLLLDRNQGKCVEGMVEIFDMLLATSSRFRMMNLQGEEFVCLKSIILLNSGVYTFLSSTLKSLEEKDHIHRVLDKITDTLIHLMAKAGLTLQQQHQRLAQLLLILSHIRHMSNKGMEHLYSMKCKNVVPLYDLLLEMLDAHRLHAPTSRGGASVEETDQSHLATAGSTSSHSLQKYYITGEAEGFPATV

Progesterone receptor = target: T2, Progesterone receptor (Homo sapiens, UniProt P06401); test: Displacement of [3H]-methyltrienolone from human progesterone receptor expressed in HEK293 cells by scintillation counting based radioligand competition binding assay
T2 sequence (P06401 whole entry): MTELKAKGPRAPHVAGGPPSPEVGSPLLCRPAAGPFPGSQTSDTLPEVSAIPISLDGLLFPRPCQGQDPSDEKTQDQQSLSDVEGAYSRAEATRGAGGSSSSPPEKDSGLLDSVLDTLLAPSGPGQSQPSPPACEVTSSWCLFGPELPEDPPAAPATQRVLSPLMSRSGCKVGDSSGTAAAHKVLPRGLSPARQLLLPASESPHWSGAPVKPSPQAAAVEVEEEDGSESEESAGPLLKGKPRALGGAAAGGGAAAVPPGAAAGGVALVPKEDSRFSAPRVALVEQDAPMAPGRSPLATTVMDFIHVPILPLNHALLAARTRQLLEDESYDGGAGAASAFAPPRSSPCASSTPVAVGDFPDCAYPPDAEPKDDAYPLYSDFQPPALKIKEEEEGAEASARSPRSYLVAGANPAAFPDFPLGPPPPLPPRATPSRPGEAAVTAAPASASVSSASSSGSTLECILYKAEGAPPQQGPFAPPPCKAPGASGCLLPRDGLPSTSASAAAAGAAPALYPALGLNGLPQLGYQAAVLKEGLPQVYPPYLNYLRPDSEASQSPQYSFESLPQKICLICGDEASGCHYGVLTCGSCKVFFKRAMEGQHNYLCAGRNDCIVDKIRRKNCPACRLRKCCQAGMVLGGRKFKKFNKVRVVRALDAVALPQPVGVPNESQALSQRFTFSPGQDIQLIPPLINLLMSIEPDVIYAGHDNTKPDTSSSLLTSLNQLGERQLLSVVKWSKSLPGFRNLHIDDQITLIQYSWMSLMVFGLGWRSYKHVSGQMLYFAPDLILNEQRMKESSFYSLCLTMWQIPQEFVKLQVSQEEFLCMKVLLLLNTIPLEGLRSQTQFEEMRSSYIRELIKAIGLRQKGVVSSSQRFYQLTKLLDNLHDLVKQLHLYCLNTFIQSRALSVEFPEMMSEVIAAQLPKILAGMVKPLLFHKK

[2] = target: T3, Mineralocorticoid receptor (Homo sapiens, UniProt P08235); test: biochemical
T3 sequence (P08235 whole entry): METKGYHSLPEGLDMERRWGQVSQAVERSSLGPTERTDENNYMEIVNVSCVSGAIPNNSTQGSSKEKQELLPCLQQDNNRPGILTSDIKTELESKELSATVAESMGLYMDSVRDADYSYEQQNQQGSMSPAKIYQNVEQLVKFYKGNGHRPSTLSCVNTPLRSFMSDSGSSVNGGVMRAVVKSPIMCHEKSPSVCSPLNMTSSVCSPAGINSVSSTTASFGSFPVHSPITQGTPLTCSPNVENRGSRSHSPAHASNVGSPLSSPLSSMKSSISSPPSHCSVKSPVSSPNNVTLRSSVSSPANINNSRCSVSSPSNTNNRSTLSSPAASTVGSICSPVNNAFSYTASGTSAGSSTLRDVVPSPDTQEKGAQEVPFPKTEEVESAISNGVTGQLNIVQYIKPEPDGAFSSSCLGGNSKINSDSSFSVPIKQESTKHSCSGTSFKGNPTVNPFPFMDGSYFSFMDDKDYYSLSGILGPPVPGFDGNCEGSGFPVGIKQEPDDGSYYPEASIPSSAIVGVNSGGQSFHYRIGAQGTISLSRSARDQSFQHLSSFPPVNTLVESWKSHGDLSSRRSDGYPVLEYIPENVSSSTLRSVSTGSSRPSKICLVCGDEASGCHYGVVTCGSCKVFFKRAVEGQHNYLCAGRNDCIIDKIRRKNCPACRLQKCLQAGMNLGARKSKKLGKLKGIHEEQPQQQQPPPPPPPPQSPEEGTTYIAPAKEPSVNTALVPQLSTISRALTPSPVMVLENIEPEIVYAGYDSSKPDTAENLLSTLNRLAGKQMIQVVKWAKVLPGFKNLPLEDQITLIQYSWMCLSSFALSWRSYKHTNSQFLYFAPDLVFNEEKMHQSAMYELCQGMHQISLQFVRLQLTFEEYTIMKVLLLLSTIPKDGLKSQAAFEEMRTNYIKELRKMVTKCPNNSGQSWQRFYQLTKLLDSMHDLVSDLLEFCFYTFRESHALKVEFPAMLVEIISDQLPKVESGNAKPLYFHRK
Description: Displacement of [3H]-aldosterone from human mineralocorticoid receptor expressed in HEK293 cells by scintillation counting based radioligand competition binding assay

Row | Compound | Activity [1] | Ki (Progesterone receptor) [nM] | Ki [2] [nM]
1 | COc1cc(NS(C)(=O)=O)c2[nH]c(C)c(-c3cc(F)ccc3OC)c2c1 | inactive | 22.3 | 38.4
2 | COc1ccccc1-c1c[nH]c2c(NS(C)(=O)=O)cccc12 | inactive | 86 | –
3 | COc1ccc(F)cc1-c1c(-c2ccccc2)[nH]c2c(NS(C)(=O)=O)cccc12 | inactive | 44.2 | 3920
4 | CS(=O)(=O)Nc1cccc2cc[nH]c12 | inactive | 104 | 952
5 | COc1cc(NS(C)(=O)=O)c2[nH]c(C)c(-c3ccccc3)c2c1 | inactive | 3940 | 3890
6 | CS(=O)(=O)Nc1cccc2c(-c3ccc(F)cc3)c[nH]c12 | inactive | 29 | 225
7 | COc1cc(F)ccc1-c1c(Cc2ccccc2)[nH]c2c(NS(C)(=O)=O)cc(C(C)C)cc12 | inactive | 4000 | 4250
8 | COc1ccc(Cl)cc1-c1c[nH]c2c(NS(C)(=O)=O)cccc12 | inactive | 233 | 4470
9 | COc1cc(F)ccc1-c1c(CN(C)Cc2ccccc2)[nH]c2c(NS(C)(=O)=O)cc(C(C)(C)C)cc12 | inactive | 253 | 3880

More lines, now with the values ahead:

Row | Activity [1] | Ki (Progesterone receptor) [nM] | Ki [2] [nM] | Compound
10 | inactive | 4190 | 2120 | COc1cc(F)ccc1-c1c(CN(C)Cc2ccccc2)[nH]c2c(N)cc(F)cc12
11 | inactive | 20.5 | 44.7 | COc1cc(F)ccc1-c1c(C)[nH]c2c(NS(C)(=O)=O)cc(F)cc12
12 | inactive | 64.2 | 1580 | COc1cc(F)ccc1-c1c(CN(C)Cc2ccccc2)[nH]c2c(NS(C)(=O)=O)cc(C(C)C)cc12
13 | inactive | 5.51 | 2.1 | CS(=O)(=O)Nc1cccc2c(-c3cccc(Cl)c3)c[nH]c12
